Source: patent US11478526B2, “Methods of reducing neuroinflammation or toxicity induced by amyloid beta (abeta) using glucocorticoid induced leucine zipper (GILZ) analog peptides” (INDIANA UNIVERSITY RESEARCH AND TECHNOLOGY CORPORATION, priority 2016, dated 2022)
Like-named read-outs stand apart in the source and are kept apart here.

Key:
Aβ1-42 exposed HFB cells = assay: Cytokines in culture medium of Aβ1-42 exposed HFB; assay type: cell-based, human; conditions: PGA at IC50 concentration
U373 cells = assay type: cell-based, human
Experimental: Lactate dehydrogenase (LDH) assay: To detect direct GA-induced cell lysis we performed LDH release assays (Roche Molecular Diagnostics). […] Approximately 5×10^4 U373 cells/well were cultured in 96-well plates in the presence of increasing concentrations of individual GA or control peptide from 0.5 μM to 500 μM. Cells treated with 2% triton-X 100 (Sigma Aldrich, St. Louis, Mo.) for 10 minutes served as positive control. Untreated cells served as controls for spontaneous LDH-release. Specific LDH-release was calculated according to the following formula: LDH-release %=100*(GA or control peptide treated cells—untreated cells)/(positive control-untreated cells). The IC50 values were extrapolated by logarithmic estimation. The LD50 in mg/kg was predicted using the formula, Log (LD50)=0.506×(log IC50)+0.475.
Effects of PGA on membrane integrity and apoptosis: The top five PGA were covalently synthesized with the cell penetrating TAT (transcriptional transactivation) peptide to facilitate intracellular delivery (Genescript, N.J.). Membrane integrity of U373 microglial cells exposed to increasing concentration of each PGA from 0.5 μm to 500 μM was assessed by the leakage of intracellular lactate dehydrogenase (LDH) into culture medium (Roche, Ind.).

[1] = system: LPS induced neuroinflammation; assay: LPS induced neuroinflammation: immunohistochemistry of hippocampal gliosis; assay type: in vivo, mouse; conditions: 25 mg/kg intravenously on alternate days; for CD11b+p65+ glial cells in the hippocampus: day 7; for GFAP+ astroglial cells in the hippocampus / Iba1+ microglial cells in the hippocampus: day 7, vs control peptide or untreated
Experimental: Animals and lipopolysaccharide induced neuroinflammation: Male C57/6J mice weighing 32 to 37 grams were housed five per cage at a temperature of 22±2° C. with 12 hour light/12 hour dark cycles with free access to laboratory food and water. Lipopolysaccharides (LPS) from Escherichia coli 026:B6, =10,000 EU/mg, purified by phenol extraction was purchased from Sigma (Sigma Aldrich, Mo., USA). The mice were randomly divided into seven groups: LPS, LPS+GA-1 or GA-2 or CP-1 or CP-2 or CP-3 or TAT. The LPS was administered intraperitoneally at […] in 100 μl of sterile saline followed by corn oil in the morning daily for six days. The GA or CP was administered intravenously at 25 mg/kg in 100 μl of sterile saline on alternate days. Additional control group included mice receiving saline alone. All animals were sacrificed on day 7.
Histology and immunohistochemistry: The mice were sacrificed on day 7 by intra-cardial perfusion of 25 ml of 0.9% saline. Brain from each mouse was removed, one half was immediately frozen and the other half fixed in 4% paraformaldehyde for 24 h and later in 10% neutral buffered formalin for additional 24 h. Fixed tissues were subsequently processed for paraffin embedding. Tissue sections (5μ) stained with Harris's haematoxylin and counterstained with eosin were assessed for inflammation.
Immunohistochemistry: Serial 5μ thick coronal sections of each brain specimen were immunostained for markers of microglial cells, astrocytes and NF-κB p65. Briefly, after deparaffinization and hydration sections were subjected to antigen retrieval by microwave incubation in 10 mM sodium citrate buffer (pH 6.0) followed by sequential incubation in 30% hydrogen peroxide and blocking buffer (Enzo biosciences,) to reduce non-specific binding. The sections were then stained with the following primary monoclonal antibodies from EMD Millipore Corporation, Temecula, Calif., USA: anti-Iba-1 (AIF1 clone: Cat. #MABN92) or anti-glial fibrillary acidic protein (GFAP) clone GA5 (Cat. #MAB3402, Millipore) or anti-CD11b (Cat. #MABF513) clone M1/70 or anti-NF-κB p65 subunit clone 12H11 (Cat. #MAB3026). For mono-staining of Iba-1 and GFAP, detection was with the use of IHC select immunoperoxidase secondary detection system (Millipore). The peroxidase conjugated streptavidin-biotin method was used and brown staining was considered positive. For dual staining of CD11b and NF-κB p65 detection was achieved using the […]® (mouse-HRP/rabbit-AP) IHC kit (Catalog #: ADI-950-100, ENZO Lifesciences, Farmingdale, N.Y., USA). For each marker, to confirm the specificity of the antibodies, a separate set of sections from each group were incubated with only the secondary antibodies, a condition in which no staining was present.
Quantitative analysis of staining intensity: Images of the IHC stained sections were captured using the NIKON Multiphoton microscope with attached DS Ri2 camera. Five areas encompassing the hippocampus of each brain section were analyzed using the ImageJ Software. The number and the relative optical density of Iba1+ and GFAP+ glial cells was determined using the multi-point tool and the IHC-tool box. A training for brown/red color was performed prior to measurement to define the threshold for positive selection. Regions of interest encompassing the hippocampus were identified in each section, and the corresponding images were quantified using integrated optical density, normalized to the background optical density. Measurement of pixel intensity was restricted to the DAB or AP stained pixels of cells within defined circularity. Five consecutive coronal sections were assessed for each mouse.

[2] = Example 9, PGA synthesized with TAT, read-out: IC50 of LDH release extrapolated from regression analysis
[3] = concentration stated for use in HFNC cultures, Example 11, read-out: IC50 concentration

| Substance | AIL-1p concentration in culture supernatant (not shown) (Aβ1-42 exposed HFB cells) | AIL-6 concentration in culture supernatant (Aβ1-42 exposed HFB cells) | IC50 (U373 cells; [2]) [µM] | IC50 (U373 cells; [3]) [µM] | CD11b+p65+ glial cells in the hippocampus [1] | GFAP+ astroglial cells in the hippocampus [1] | Iba1+ microglial cells in the hippocampus [1] |
| --- | --- | --- | --- | --- | --- | --- | --- |
| Ac-EPAPLAPYG-NH2 [PGA-2] | significantly lower | significantly lower | 1.95 | 169 | – | – | – |
| Ac-EPAPESPQV-NH2 [PGA-4] | significantly lower | significantly lower | 1.5 | 102 | – | – | – |
| Ac-EPAPESPQV-NH2 [GA-2] | – | – | – | – | significantly reduced in number and intensity | reduced | reduced |
| Ac-EPAPLAPYG-NH2 [GA-1] | – | – | – | – | significantly reduced in number and intensity | reduced | reduced |
